{"source": "DBAASP", "test_in_all_cases": "≥ marks a high value that may be exact or a test limit, other limits are often not marked, values filed in µg/mL are converted to µM", "key": {"Acinetobacter baumannii": {"test_system": "Acinetobacter baumannii"}, "Aeromonas sobria 090223": {"test_system": "Aeromonas sobria 090223"}, "[1]": {"test_system": "Candida albicans ATCC 2002"}, "Candida glabrata 0902": {"test_system": "Candida glabrata 0902"}, "[2]": {"test_system": "Enterococcus faecium 1299"}, "Escherichia coli 1342": {"test_system": "Escherichia coli 1342"}, "[3]": {"test_system": "Escherichia coli ATCC 25922"}, "Klebsiella pneumoniae": {"test_system": "Klebsiella pneumoniae"}, "[4]": {"test_system": "Nocardia asteroides 090312"}, "Proteus mirabilis 090223": {"test_system": "Proteus mirabilis 090223"}, "[5]": {"test_system": "Staphylococcus aureus 090223"}, "[6]": {"test_system": "Staphylococcus aureus 1349"}, "[7]": {"test_system": "Staphylococcus aureus ATCC 2592"}, "[8]": {"test_system": "Stenotrophomonas maltophilia 090223"}, "[9]": {"test_system": "Bacillus subtilis AB91021"}, "[10]": {"test_system": "Bacillus thuringiensis AB92037"}, "Escherichia coli AB94012": {"test_system": "Escherichia coli AB94012"}, "[11]": {"test_system": "Pseudomonas aeruginosa AB93066"}, "[12]": {"test_system": "Staphylococcus aureus AB94004"}, "Staphylococcus sp.": {"test_system": "Staphylococcus sp."}, "Candida albicans M9": {"test_system": "Candida albicans M9"}, "Escherichia coli DC2": {"test_system": "Escherichia coli DC2"}, "Escherichia coli K-12": {"test_system": "Escherichia coli K-12"}, "[13]": {"test_system": "Salmonella enterica serovar Minnesota 1114W"}, "[14]": {"test_system": "Salmonella enterica serovar Minnesota R595"}, "[15]": {"test_system": "Salmonella enterica subsp. enterica serovar Typhimurium LT2"}, "[16]": {"test_system": "Salmonella typhimurium 1102"}, "[17]": {"test_system": "Staphylococcus aureus 209P"}, "[18]": {"test_system": "Staphylococcus aureus ATCC 25923"}, "[19]": {"test_system": "Staphylococcus aureus ATCC 6538"}, "Bacillus anthracis": {"test_system": "Bacillus anthracis"}, "Bacillus cereus": {"test_system": "Bacillus cereus"}, "Escherichia coli": {"test_system": "Escherichia coli"}, "Staphylococcus aureus": {"test_system": "Staphylococcus aureus"}}, "note": "Values joined by “and” are separate entries in the source; they are usually repeats but may differ in a detail not shown here. Equal entries are not always repeated.", "data": [{"smiles": "CC[C@H](C)[C@@H]1NC(=O)[C@H](CCSC)NC(=O)[C@@H](NC(=O)[C@H](CC(C)C)NC(=O)[C@H](CC(C)C)NC(=O)[C@H](CO)NC(=O)[C@@H]2CCCN2C(=O)[C@H](CC(C)C)NC(=O)[C@H](CC(C)C)NC(=O)[C@H](CCCCN)NC(=O)[C@@H](NC(=O)[C@@H](NC(=O)[C@H](C)NC(=O)CNC(=O)[C@H](CC(C)C)NC(=O)[C@H](C)NC(=O)[C@@H](N)Cc2ccccc2)C(C)C)[C@@H](C)O)CSSC[C@@H](C(=O)O)NC(=O)[C@H](CCCCN)NC(=O)[C@H](CCCN=C(N)N)NC(=O)[C@H]([C@@H](C)O)NC1=O", "note": "[FALGAVTKLLPSLLCMITRKC]", "values": [{"measurement": "MIC", "setting": "Acinetobacter baumannii", "result": 8.25, "unit": "µM"}, {"measurement": "MIC", "setting": "Aeromonas sobria 090223", "result": 8.25, "unit": "µM"}, {"measurement": "MIC", "setting": "[1]", "result": 1.01, "unit": "µM"}, {"measurement": "MIC", "setting": "Candida glabrata 0902", "result": "≥ 32.9", "unit": "µM"}, {"measurement": "MIC", "setting": "[2]", "result": 2.06, "unit": "µM"}, {"measurement": "MIC", "setting": "Escherichia coli 1342", "result": 4.12, "unit": "µM"}, {"measurement": "MIC", "setting": "[3]", "result": 32.9, "unit": "µM"}, {"measurement": "MIC", "setting": "Klebsiella pneumoniae", "result": 32.9, "unit": "µM"}, {"measurement": "MIC", "setting": "[4]", "result": 8.25, "unit": "µM"}, {"measurement": "MIC", "setting": "Proteus mirabilis 090223", "result": 8.25, "unit": "µM"}, {"measurement": "MIC", "setting": "[5]", "result": 2.06, "unit": "µM"}, {"measurement": "MIC", "setting": "[6]", "result": 16.5, "unit": "µM"}, {"measurement": "MIC", "setting": "[7]", "result": 8.25, "unit": "µM"}, {"measurement": "MIC", "setting": "[8]", "result": 4.12, "unit": "µM"}]}, {"smiles": "CC[C@H](C)[C@H](NC(=O)[C@H](CC(C)C)NC(=O)[C@H](CO)NC(=O)[C@@H]1CCCN1C(=O)[C@@H](NC(=O)[C@H](CC(C)C)NC(=O)CNC(=O)[C@H](Cc1ccccc1)NC(=O)[C@@H](N)CC(C)C)[C@@H](C)CC)C(=O)NCC(=O)NCC(=O)N[C@@H](CC(C)C)C(=O)N[C@H](C(=O)N[C@@H](CO)C(=O)N[C@@H](C)C(=O)N[C@@H](Cc1ccccc1)C(=O)N[C@@H](CCCCN)C(N)=O)C(C)C", "note": "[LFGLIPSLIGGLVSAFK]", "values": [{"measurement": "MIC", "setting": "[9]", "result": 28.9, "unit": "µM"}, {"measurement": "MIC", "setting": "[10]", "result": 14.4, "unit": "µM"}, {"measurement": "MIC", "setting": "Escherichia coli AB94012", "result": "≥ 57.7", "unit": "µM"}, {"measurement": "MIC", "setting": "[11]", "result": "≥ 57.7", "unit": "µM"}, {"measurement": "MIC", "setting": "[12]", "result": 14.4, "unit": "µM"}, {"measurement": "MIC", "setting": "Staphylococcus sp.", "result": 14.4, "unit": "µM"}]}, {"smiles": "CC[C@H](C)[C@@H]1NC(=O)CNC(=O)[C@H](CCCN=C(N)N)NC(=O)[C@H](Cc2ccc(O)cc2)NC(=O)[C@@H]2CSSC[C@H](NC1=O)C(=O)N[C@@H](Cc1ccc(O)cc1)C(=O)N[C@@H](CCCN=C(N)N)C(=O)N[C@@H](CCCCN)C(=O)N[C@H](C(=O)N[C@@H](CCCN=C(N)N)C(N)=O)CSSC[C@H](NC(=O)[C@H](Cc1c[nH]c3ccccc13)NC(=O)[C@@H](N)CCCN=C(N)N)C(=O)N[C@@H](Cc1ccccc1)C(=O)N[C@@H](CCCN=C(N)N)C(=O)N[C@@H](C(C)C)C(=O)N2", "note": "[RWCFRVCYRGICYRKCR]", "values": [{"measurement": "MIC", "setting": "Candida albicans M9", "result": 1.37, "unit": "µM"}, {"measurement": "MIC", "setting": "[3]", "result": 0.25, "unit": "µM"}, {"measurement": "MIC", "setting": "Escherichia coli DC2", "result": 0.707, "unit": "µM"}, {"measurement": "MIC", "setting": "Escherichia coli K-12", "result": 0.982, "unit": "µM"}, {"measurement": "MIC", "setting": "[13]", "result": 2.78, "unit": "µM"}, {"measurement": "MIC", "setting": "[14]", "result": 0.705, "unit": "µM"}, {"measurement": "MIC", "setting": "[15]", "result": 0.982, "unit": "µM"}, {"measurement": "MIC", "setting": "[16]", "result": 0.982, "unit": "µM"}, {"measurement": "MIC", "setting": "[17]", "result": 2.78, "unit": "µM"}, {"measurement": "MIC", "setting": "[18]", "result": "5.51 µM and 2 µM"}, {"measurement": "MIC", "setting": "[19]", "result": 5.66, "unit": "µM"}]}, {"smiles": "CC[C@H](C)[C@H](NC(=O)[C@H](Cc1cnc[nH]1)NC(=O)[C@@H](N)[C@@H](C)O)C(=O)N[C@@H](Cc1cnc[nH]1)C(=O)N[C@@H](CCSC)C(=O)N[C@@H](CC(N)=O)C(=O)N[C@@H](C)C(=O)N[C@@H](CCCN=C(N)N)C(=O)N[C@@H](CC(C)C)C(=O)N[C@@H](CC(C)C)C(=O)N[C@H](C(=O)N[C@@H](CCCN=C(N)N)C(=O)N[C@@H](CO)C(=O)N1CCC[C@H]1C(=O)N[C@@H](Cc1ccccc1)C(=O)N[C@H](C(=O)N[C@@H](CC(=O)O)C(=O)N1CCC[C@H]1C(=O)N[C@@H](CCC(N)=O)C(=O)N[C@@H](CC(C)C)C(=O)O)[C@@H](C)O)[C@@H](C)CC", "note": "[THIHMNARLLIRSPFTDPQL]", "values": [{"measurement": "MIC", "setting": "Bacillus anthracis", "result": "≥ 108", "unit": "µM"}, {"measurement": "MIC", "setting": "Bacillus cereus", "result": "≥ 108", "unit": "µM"}, {"measurement": "MIC", "setting": "Escherichia coli", "result": "> 108", "unit": "µM"}, {"measurement": "MIC", "setting": "Staphylococcus aureus", "result": "> 108", "unit": "µM"}]}]}
